The nature of data set [1]: Cytotoxicity against African green monkey Vero cells assessed as cell growth inhibition at 120 uM measured after 48 hrs by CCK8 assay relative to control. Conditions: chlorocebus sabaeus. The data set is classed as cell-based. Background: Tetrazolium assays rely on reduction of a dye to a coloured formazan, in cell work by metabolically active cells.
Data set [2] concerns the target T1, Glutamate NMDA receptor (Mus musculus) (UniProt P35436+Q91ZU9+Q03391+P35438+Q01097+Q01098+A2AIR5). In words: Positive allosteric modulation of C57BL/6 mouse NMDA receptor assessed as fold change in compound potentiated NMDA-induced current relative to NMDA current alone in presence of saturating glutamate by patch-clamp method. To be noted: Brain, filed as positive allosteric modulator. Type of data set: tissue-based.

Data set [3] addresses T2, hERG (KCNH2) (Homo sapiens, UniProt Q12809). Kind of data set: Inhibition of human ERG expressed in CHO cells at 30 uM with holding potential at -80 to -60 mV for 500s followed by raise in potential at +30 mV for 2 sec and subsequent repolarization to -60 mV for 2 sec by whole-cell patch clamp method relative to control. The data set is classed as cell-based. Conditions: CHO cells expressing human ERG. A general note: In patch-clamp work, channel activity is measured electrically.

Data set [4] can be described thus: Brain to blood partition coefficient of the compound. Type of data set: physicochemical, tissue-based. To be noted: read-out: logBB (converted).
Data set [5] is described as follows: Effect on locomotor activity in ICR mouse assessed as hypolocomotion at 10 mg/kg, ip measured after 90 mins. The data set is classed as ADME, organism-based. To be noted: in vivo, 1.5 h.
The nature of data set [6]: Cytotoxicity against African green monkey Vero cells assessed as cell growth inhibition at 60 uM measured after 48 hrs by CCK8 assay relative to control. Conditions: chlorocebus sabaeus. The data set is classed as cell-based.
Data set [7] deals with Mus musculus. In words: Antidepressant activity in ICR mouse aassessed as inhibition of apomorphine-induced climbing behaviour at 10 mg/kg, ip administered prior to APO challenge and measured after 30 mins. The data set is classed as functional, organism-based.
Data set [8] has as its target T1, Glutamate NMDA receptor (Mus musculus). In words: Positive allosteric modulation of C57BL/6 mouse NMDA receptor assessed as fold change in compound potentiated NMDA-induced current relative to NMDA current alone at 30 uM measured after 15 to 30 mins by patch-clamp method. The data set is classed as tissue-based. Conditions: Brain, filed as positive allosteric modulator, time 15-30 min.

Data set [9] in a line: Cytotoxicity against mouse L929 cells assessed as cell growth inhibition at 60 uM measured after 48 hrs by CCK8 assay relative to control. Type of data set: cell-based.
The target of the next data set is Glutamate NMDA receptor. In words: Positive allosteric modulation of C57BL/6 mouse NMDA receptor assessed as potentiation of NMDA-induced current in presence of saturating glutamate by patch-clamp method. Type of data set: tissue-based, Brain.
Data set [10] has as its system Mus musculus. Kind of data set: Antidepressant activity in ICR mouse assessed as decrease in immobility time at 30 mg/kg, ip measured after 26 mins by forced swim test. The data set is classed as functional, organism-based.
The nature of data set [11]: Effect on locomotor activity in ICR mouse assessed as hyperlocomotion at 10 mg/kg, ip measured after 90 mins. Conditions: in vivo, 1.5 h. Type of data set: ADME, organism-based.
Data set [12] has as its target T2, hERG (KCNH2). Kind of data set: Inhibition of human ERG expressed in CHO cells at 100 uM with holding potential at -80 to -60 mV for 500s followed by raise in potential at +30 mV for 2 sec and subsequent repolarization to -60 mV for 2 sec by whole-cell patch clamp method relative to control. Type of data set: cell-based. To be noted: CHO cells expressing human ERG.

The nature of data set [13]: Cytotoxicity against mouse L929 cells assessed as cell growth inhibition at 120 uM measured after 48 hrs by CCK8 assay relative to control. The data set is classed as cell-based.
Data set [14] can be described thus: Cytotoxicity against human HEK293 cells assessed as cell growth inhibition at 120 uM measured after 48 hrs by CCK8 assay relative to control. Type of data set: cell-based.
A short description of data set [15]: Cytotoxicity against human HEK293 cells assessed as cell growth inhibition at 60 uM measured after 48 hrs by CCK8 assay relative to control. The data set is classed as cell-based.
Data set [16] addresses T1, Glutamate NMDA receptor (Mus musculus). In words: Positive allosteric modulation of C57BL/6 mouse NMDA receptor assessed as potentiation of NMDA-induced current by measuring peak current amplitude at 30 uM measured after 15 to 30 mins by patch-clamp method (reference value: 54.6 +/- 4.6 pA). Type of data set: tissue-based. Conditions: Brain, filed as positive allosteric modulator, time 15-30 min.

In data set [17] the test system is Mus musculus. In words: Antidepressant activity in ICR mouse assessed as decrease in immobility time at 3 to 10 mg/kg, ip measured after 26 mins by forced swim test. Conditions: dose 3-10 mg/kg. Type of data set: functional, organism-based.
Data set [18] deals with Mus musculus. Kind of data set: Antidepressant activity in icv dosed C57BL/6N mouse assessed as decrease in immobility time measured after 36 mins. The data set is classed as functional, organism-based.

Active and inactive are the calls of the source. The rule behind the calls is not given here.

T2 sequence (Q12809 whole entry): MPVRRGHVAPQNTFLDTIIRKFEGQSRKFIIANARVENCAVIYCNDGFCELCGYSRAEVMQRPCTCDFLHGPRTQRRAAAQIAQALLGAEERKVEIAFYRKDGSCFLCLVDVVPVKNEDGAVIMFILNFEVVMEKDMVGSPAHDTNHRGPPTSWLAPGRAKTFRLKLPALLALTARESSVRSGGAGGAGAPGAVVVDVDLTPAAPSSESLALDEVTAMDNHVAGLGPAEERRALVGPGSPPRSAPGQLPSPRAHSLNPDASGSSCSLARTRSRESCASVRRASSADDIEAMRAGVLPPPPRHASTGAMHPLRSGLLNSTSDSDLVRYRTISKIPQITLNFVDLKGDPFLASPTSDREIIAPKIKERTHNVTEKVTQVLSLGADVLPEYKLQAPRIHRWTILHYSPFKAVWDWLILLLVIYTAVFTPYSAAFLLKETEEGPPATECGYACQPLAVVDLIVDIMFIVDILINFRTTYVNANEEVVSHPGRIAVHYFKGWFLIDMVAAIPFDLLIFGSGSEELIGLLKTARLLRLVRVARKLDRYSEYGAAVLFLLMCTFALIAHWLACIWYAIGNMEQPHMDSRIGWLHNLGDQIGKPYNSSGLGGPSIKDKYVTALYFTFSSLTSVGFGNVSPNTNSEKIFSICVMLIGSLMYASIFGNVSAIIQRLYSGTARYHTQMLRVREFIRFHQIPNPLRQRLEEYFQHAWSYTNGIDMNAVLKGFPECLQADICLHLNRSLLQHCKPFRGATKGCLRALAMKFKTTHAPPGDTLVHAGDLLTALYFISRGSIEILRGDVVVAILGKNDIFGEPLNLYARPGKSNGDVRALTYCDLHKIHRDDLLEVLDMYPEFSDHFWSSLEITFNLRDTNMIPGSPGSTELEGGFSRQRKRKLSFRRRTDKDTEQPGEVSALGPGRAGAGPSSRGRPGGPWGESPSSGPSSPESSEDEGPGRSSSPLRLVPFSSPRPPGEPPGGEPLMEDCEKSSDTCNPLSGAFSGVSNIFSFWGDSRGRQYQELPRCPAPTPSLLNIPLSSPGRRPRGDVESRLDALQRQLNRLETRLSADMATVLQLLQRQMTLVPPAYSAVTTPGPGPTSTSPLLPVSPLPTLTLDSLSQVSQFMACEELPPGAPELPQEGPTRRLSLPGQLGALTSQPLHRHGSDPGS

Take `Cc1cc(C)n(Cc2ccc(C(=O)Nc3ccc4cc[nH]c4c3)s2)n1`: the values for the inhibition at 48 h, 120 µM in data set [1], in data set [13] and in [14] were -0.4%, 25.5% and 2.5%, respectively. Further, the fold change (FC) in data set [2] turned out to be 10.5; in data set [8] it was 8.9. Moreover, the inhibition at 2 s, 30 µM on hERG (KCNH2) [3] is 33.6%. The Kp in [4] is 0.316. Also, the Activity entry in data set [5] and in data set [11] was “Non-Toxic” throughout. Besides, the inhibition at 48 h, 60 µM in data set [6] was -3.2%; in [9] it was 2.8%; in data set [15], -7.4%. The outcome in the data set with Mus musculus [7] and in the data set on Mus musculus [10] was inactive. In addition, on Glutamate NMDA receptor, the EC50 was 9 µM. Moreover, the inhibition at 2 s, 100 µM on hERG (KCNH2) [12] is 46.7%.

`O=C(Nc1ccc(Cl)cc1C(=O)NCCCCO)c1ccco1`: the Kp in data set [4] was 0.0776. For the same compound, the fold change (FC) in data set [8] was 3.5. Further, the Activity in data set [16] came to 1320 pA.

As for `Cc1cc(C)n(Cc2ccc(C(=O)Nc3ccc(-c4cccnc4)cc3)s2)n1`, the values for the inhibition at 48 h, 120 µM in data set [1], in data set [13] and in data set [14] were -7.5%, 28.6% and 18%, respectively. Moreover, the fold change (FC) in data set [2] is 12.8; in data set [8] it was 14.3. For the same compound, the inhibition at 2 s, 30 µM against hERG (KCNH2) [3] came out at 44.2%. Besides, the Kp in data set [4] is 0.398. In addition, the Activity entry in data set [5] and in data set [11] was “Non-Toxic” throughout. In addition, the inhibition at 48 h, 60 µM in data set [6] was -3.8%; in data set [9], 27.5%; in data set [15], 6.5%. The result with Mus musculus [7] and with Mus musculus [17] was inactive. On Glutamate NMDA receptor, the 50% effective concentration (EC50) came out at 3.6 µM. Besides, the outcome in the data set with Mus musculus [10] was Active. Also, on hERG (KCNH2) [12], the inhibition at 2 s, 100 µM came out at 53.4%.

As to `CNCCC(Oc1ccc(C(F)(F)F)cc1)c1ccccc1` (centres undefined), in the data set with Mus musculus [18], the result was Active.

For `Cc1cc(C)n(Cc2ccc(C(=O)Nc3ccc(F)cc3C)s2)n1`, the inhibition at 48 h, 120 µM in data set [1] was determined as 8.7%; in data set [13], 23.9%; in [14] it was 34.4%. For the same compound, the fold change (FC) in data set [2] stood at 10.2; in data set [8], 10.1. Further, the inhibition at 2 s, 30 µM against hERG (KCNH2) [3] amounted to 33.4%. Further, in data set [4], the Kp is 0.794. For the same compound, the Activity result in data set [5] and in data set [11] was “Non-Toxic” in each case. The inhibition at 48 h, 60 µM in data set [6] is -1.5%; in data set [9] it was 11.5%; in [15], 16.3%. For the same compound, the outcome in the data set with Mus musculus [7] and in the data set with Mus musculus [17] was inactive. The concentration giving a half-maximal response (EC50) on Glutamate NMDA receptor stood at 7.8 µM. Also, the result in the data set with Mus musculus [10] was Active. Moreover, at hERG (KCNH2) [12], the inhibition at 2 s, 100 µM was found to be 47.6%.

What is called inhibition is the change of the read-out against control, counted positive when it falls. A word on the EC50: it is the concentration needed to bring the measured effect to its halfway point.

The record behind these values is ChEMBL document CHEMBL4834434, “Discovery of Novel and Potent N-Methyl-d-aspartate Receptor Positive Allosteric Modulators with Antidepressant-like Activity in Rodent Models” (J Med Chem, 2021).
